From ChEMBL document CHEMBL1201862, “PubChem BioAssay data set” (2004)
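All cell lines were grown in 96-well plates and treated with compound for 48 hours. At the GI50, growth is halved.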 The source made the active and inactive calls. No stated cut-off is given here; in the data, active = GI50 up to about 1.1 µM and inactive = higher.

Legend:
Assay in all cases: inhibition of tumour cell growth, NCI panel, 48 h
SK-OV-3 = system: SK-OV-3
HOP-62 = system: HOP-62
SF-268 = system: SF-268
NCI/ADR-RES = system: NCI/ADR-RES
K562 = system: K562
SK-MEL-2 = system: SK-MEL-2
SK-MEL-5 = system: SK-MEL-5
HCC 2998 = system: HCC 2998
HOP-92 = system: HOP-92
LOX IMVI = system: LOX IMVI
SF-295 = system: SF-295
MDA-MB-435 = system: MDA-MB-435
Malme-3M = system: Malme-3M
IGROV-1 = system: IGROV-1
ACHN = system: ACHN
NCI-H522 = system: NCI-H522
RXF 393 = system: RXF 393
Hs-578T = system: Hs-578T
PC-3 = system: PC-3
786-0 = system: 786-0
KM12 = system: KM12
MOLT-4 = system: MOLT-4
A498 = system: A498
OVCAR-8 = system: OVCAR-8
SN12C = system: SN12C
DU-145 = system: DU-145
CAKI-1 = system: CAKI-1
MDA-MB-231 = system: MDA-MB-231
SW-620 = system: SW-620
OVCAR-3 = system: OVCAR-3
HCT-15 = system: HCT-15
HCT-116 = system: HCT-116
HT-29 = system: HT-29
U-251 = system: U-251
SR = system: SR
SK-MEL-28 = system: SK-MEL-28
TK-10 = system: TK-10
EKVX = system: EKVX
UACC-62 = system: UACC-62
SNB-19 = system: SNB-19
NCI-H23 = system: NCI-H23
SF-539 = system: SF-539
T47D = system: T47D
NCI-H460 = system: NCI-H460
UACC-257 = system: UACC-257
COLO 205 = system: COLO 205
A549 = system: A549
M14 = system: M14
OVCAR-5 = system: OVCAR-5
BT-549 = system: BT-549
CCRF-CEM = system: CCRF-CEM
UO-31 = system: UO-31
HL-60 = system: HL-60
MDA-N = system: MDA-N
MCF7 = system: MCF7
OVCAR-4 = system: OVCAR-4
RPMI-8226 = system: RPMI-8226
SNB-75 = system: SNB-75
NCI-H226 = system: NCI-H226

SMILES: COc1cccc(-c2nc(O)c3ccccc3n2)c1
- GI50 (SK-OV-3): 19.7 µM (inactive)
- GI50 (HOP-62): 17.5 µM (inactive)
- GI50 (SF-268): 19.4 µM (inactive)
- GI50 (NCI/ADR-RES): 18.1 µM (inactive)
- GI50 (K562): 38.5 µM (inactive)
- GI50 (SK-MEL-2): 39.5 µM (inactive)
- GI50 (SK-MEL-5): 24.3 µM (inactive)
- GI50 (HCC 2998): 22.3 µM (inactive)
- GI50 (HOP-92): 27 µM (inactive)
- GI50 (LOX IMVI): 52.6 µM (inactive)
- GI50 (SF-295): 32.1 µM (inactive)
- GI50 (MDA-MB-435): 14.9 µM (inactive)
- GI50 (Malme-3M): 21.6 µM (inactive)
- GI50 (IGROV-1): 24.5 µM (inactive)
- GI50 (ACHN): 20.8 µM (inactive)
- GI50 (NCI-H522): 23.2 µM (inactive)
- GI50 (RXF 393): 25.4 µM (inactive)
- GI50 (Hs-578T): 19.6 µM (inactive)
- GI50 (PC-3): 20.1 µM (inactive)
- GI50 (786-0): 14.9 µM (inactive)
- GI50 (KM12): 25 µM (inactive)
- GI50 (MOLT-4): 86.5 µM (inactive)
- GI50 (A498): 22.4 µM (inactive)
- GI50 (OVCAR-8): 28.4 µM (inactive)
- GI50 (SN12C): 33.9 µM (inactive)
- GI50 (DU-145): 29.1 µM (inactive)
- GI50 (CAKI-1): 16.4 µM (inactive)
- GI50 (MDA-MB-231): 25.3 µM (inactive)
- GI50 (SW-620): 32.9 µM (inactive)
- GI50 (OVCAR-3): 21.2 µM (inactive)
- GI50 (HCT-15): 18 µM
- GI50 (HCT-116): 22.5 µM (inactive)
- GI50 (HT-29): 21.2 µM (inactive)
- GI50 (U-251): 7.31 µM (inactive)
- GI50 (SR): > 100 µM (inactive)
- GI50 (SK-MEL-28): 28.1 µM (inactive)
- GI50 (TK-10): 17.9 µM (inactive)
- GI50 (EKVX): 26.8 µM (inactive)
- GI50 (UACC-62): 20.1 µM (inactive)
- GI50 (SNB-19): 19.8 µM (inactive)
- GI50 (NCI-H23): 26.7 µM (inactive)
- GI50 (SF-539): 23.3 µM (inactive)
- GI50 (T47D): 21.8 µM (inactive)
- GI50 (NCI-H460): 23.2 µM (inactive)
- GI50 (UACC-257): 21.7 µM (inactive)
- GI50 (COLO 205): 37.8 µM (inactive)
- GI50 (A549): 21 µM (inactive)
- GI50 (M14): 50.2 µM (inactive)
- GI50 (OVCAR-5): 39.4 µM (inactive)
- GI50 (BT-549): 24.8 µM (inactive)
- GI50 (CCRF-CEM): > 10 µM (inactive)
- GI50 (UO-31): 22.4 µM (inactive)
- GI50 (HL-60): > 100 µM (inactive)
- GI50 (MDA-N): 17.3 µM (inactive)
- GI50 (MCF7): 22.1 µM (inactive)

SMILES: CC(C)(C)c1ccc(O)c(C[N+](C)(C)C)c1
- GI50 (SK-OV-3): > 100 µM (inactive)
- GI50 (HOP-62): > 100 µM (inactive)
- GI50 (SF-268): > 100 µM (inactive)
- GI50 (NCI/ADR-RES): > 100 µM (inactive)
- GI50 (K562): 95.5 µM (inactive)
- GI50 (SK-MEL-2): > 100 µM (inactive)
- GI50 (SK-MEL-5): 49.4 µM (inactive)
- GI50 (HOP-92): > 100 µM (inactive)
- GI50 (LOX IMVI): > 100 µM (inactive)
- GI50 (SF-295): > 100 µM (inactive)
- GI50 (MDA-MB-435): > 100 µM (inactive)
- GI50 (Malme-3M): > 100 µM (inactive)
- GI50 (IGROV-1): > 100 µM (inactive)
- GI50 (ACHN): > 100 µM (inactive)
- GI50 (NCI-H522): 34.3 µM (inactive)
- GI50 (RXF 393): > 100 µM (inactive)
- GI50 (Hs-578T): > 100 µM (inactive)
- GI50 (PC-3): > 100 µM (inactive)
- GI50 (786-0): > 100 µM (inactive)
- GI50 (KM12): > 100 µM (inactive)
- GI50 (MOLT-4): > 100 µM (inactive)
- GI50 (A498): 47.5 µM (inactive)
- GI50 (OVCAR-8): > 100 µM (inactive)
- GI50 (SN12C): > 100 µM (inactive)
- GI50 (DU-145): > 100 µM (inactive)
- GI50 (CAKI-1): > 100 µM (inactive)
- GI50 (MDA-MB-231): > 100 µM (inactive)
- GI50 (SW-620): > 100 µM (inactive)
- GI50 (OVCAR-3): 68.9 µM (inactive)
- GI50 (HCT-15): > 100 µM
- GI50 (HCT-116): > 100 µM (inactive)
- GI50 (HT-29): > 100 µM (inactive)
- GI50 (U-251): > 100 µM (inactive)
- GI50 (SR): > 100 µM (inactive)
- GI50 (OVCAR-4): > 100 µM (inactive)
- GI50 (SK-MEL-28): > 100 µM (inactive)
- GI50 (TK-10): > 100 µM (inactive)
- GI50 (EKVX): 93.1 µM (inactive)
- GI50 (UACC-62): > 100 µM (inactive)
- GI50 (SNB-19): > 100 µM (inactive)
- GI50 (NCI-H23): > 100 µM (inactive)
- GI50 (SF-539): > 100 µM (inactive)
- GI50 (RPMI-8226): 63.2 µM (inactive)
- GI50 (T47D): > 100 µM (inactive)
- GI50 (NCI-H460): > 100 µM (inactive)
- GI50 (COLO 205): > 100 µM (inactive)
- GI50 (A549): > 100 µM (inactive)
- GI50 (M14): > 100 µM (inactive)
- GI50 (OVCAR-5): > 100 µM (inactive)
- GI50 (BT-549): > 100 µM (inactive)
- GI50 (CCRF-CEM): > 100 µM (inactive)
- GI50 (UO-31): > 100 µM (inactive)
- GI50 (MDA-N): > 100 µM (inactive)
- GI50 (MCF7): > 100 µM (inactive)
- GI50 (SNB-75): > 100 µM (inactive)

SMILES: CC(C)(C)OC(=O)CCC1NC(=O)[C@@H]2Cc3c([nH]c4ccccc34)C(c3ccccc3)N2C1=O (some centres undefined)
- GI50 (SK-OV-3): 29.6 µM (inactive)
- GI50 (HOP-62): 24.2 µM (inactive)
- GI50 (SF-268): 24.7 µM (inactive)
- GI50 (NCI/ADR-RES): 35.5 µM (inactive)
- GI50 (K562): > 100 µM (inactive)
- GI50 (SK-MEL-2): 21 µM (inactive)
- GI50 (SK-MEL-5): 17.6 µM (inactive)
- GI50 (HOP-92): 27.9 µM (inactive)
- GI50 (LOX IMVI): 18.8 µM (inactive)
- GI50 (SF-295): 19.7 µM (inactive)
- GI50 (MDA-MB-435): 21.7 µM (inactive)
- GI50 (Malme-3M): 16.4 µM (inactive)
- GI50 (IGROV-1): 31.3 µM (inactive)
- GI50 (ACHN): 27.9 µM (inactive)
- GI50 (NCI-H522): 25.2 µM (inactive)
- GI50 (RXF 393): 18.2 µM (inactive)
- GI50 (Hs-578T): 16.7 µM (inactive)
- GI50 (PC-3): 19.3 µM (inactive)
- GI50 (786-0): 30.6 µM (inactive)
- GI50 (KM12): 24.9 µM (inactive)
- GI50 (MOLT-4): > 100 µM (inactive)
- GI50 (A498): 36.2 µM (inactive)
- GI50 (OVCAR-8): 37.2 µM (inactive)
- GI50 (SN12C): 23.7 µM (inactive)
- GI50 (NCI-H226): 30.4 µM (inactive)
- GI50 (DU-145): 43.7 µM (inactive)
- GI50 (CAKI-1): 29.2 µM (inactive)
- GI50 (MDA-MB-231): 19.7 µM (inactive)
- GI50 (SW-620): 41.7 µM (inactive)
- GI50 (OVCAR-3): 21.6 µM (inactive)
- GI50 (HCT-15): 33 µM
- GI50 (HCT-116): 19.4 µM (inactive)
- GI50 (HT-29): 22.8 µM (inactive)
- GI50 (U-251): 18.2 µM (inactive)
- GI50 (SR): > 100 µM (inactive)
- GI50 (OVCAR-4): 32.7 µM (inactive)
- GI50 (SK-MEL-28): 44.5 µM (inactive)
- GI50 (TK-10): 33.7 µM (inactive)
- GI50 (EKVX): 36.6 µM (inactive)
- GI50 (UACC-62): 17.7 µM (inactive)
- GI50 (SNB-19): 34.3 µM (inactive)
- GI50 (NCI-H23): 29.1 µM (inactive)
- GI50 (RPMI-8226): 36.9 µM (inactive)
- GI50 (T47D): 27.8 µM (inactive)
- GI50 (UACC-257): 21.7 µM (inactive)
- GI50 (COLO 205): 20.9 µM (inactive)
- GI50 (A549): 31.8 µM (inactive)
- GI50 (M14): 25.9 µM (inactive)
- GI50 (OVCAR-5): 25.1 µM (inactive)
- GI50 (BT-549): 28.6 µM (inactive)
- GI50 (UO-31): 29.4 µM (inactive)
- GI50 (HL-60): 21.4 µM (inactive)
- GI50 (MDA-N): 19.8 µM (inactive)
- GI50 (MCF7): 32.4 µM (inactive)
